Data reported in patent publication US11278530B2, “Polycyclic amides as muscarinic M1 receptor positive allosteric modulators” (SUVEN LIFE SCIENCES LIMITED, priority 2017, dated 2022).

Tests used:
[1] = Rodent pharmacokinetic study; assay type: in vivo, Male Wistar rats; conditions: male, Wistar, rat, plasma; for bioavailability: oral 3 mg/kg vs i.v. 1 mg/kg, read-out: F (bioavailability)
Experimental: Rodent Pharmacokinetic Study
Male Wistar rats (260±50 grams) were used as experimental animals. Animals were housed individually in polypropylene cage. Two days prior to study, male Wistar rats were anesthetized with isoflurane for surgical placement of jugular vein catheter. Rats were randomly divided for oral (3 mg/kg) and intravenous (i.v) (1 mg/kg) dosing (n=3/group) and fasted overnight before oral dosing (p.o.). However, rats allocated to intravenous (i.v.) dosing food and water was provided ad libitum.
At pre-determined point, blood was collected through jugular vein and replenished with an equivalent volume of normal saline. Collected blood was transferred into a labelled eppendorf tube containing 10 μL of heparin as an anticoagulant. Typically blood samples were collected at following time points: 0.08, 0.25, 0.5, 1, 2, 4, 6, 8, and 24 h post dose. Blood was centrifuged at 4000 rpm for 10 minutes. Plasma was separated and stored frozen at −80° C. until analysis. The concentrations of the test compounds were quantified in plasma by qualified LC-MS/MS method using suitable extraction technique. The test compounds were quantified in the calibration range around 1-1000 ng/mL in plasma. Study samples were analyzed using calibration samples in the batch and quality control samples spread across the batch.
Pharmacokinetic parameters Cmax, Tmax (h), AUCt, T1/2, clearance and bioavailability (F) were calculated by non-compartmental model using standard non-compartmental model by using Phoenix WinNonlin 6.0.2 or 6.0.3 version Software package.

[2] = Rodent brain penetration study; assay type: in vivo, Male Wistar rats; conditions: male, Wistar, brain and plasma, po; rat, 3 mg/kg, p.o. @ 1.0 hr, brain-plasma ratio; read-out: Single dose Rat Brain Penetration (Cb/Cp)
Experimental: Rodent Brain Penetration Study
Male Wistar rats (260±40 grams) were used as experimental animals. Three animals were housed in each cage. Animals were given water and food ad libitum throughout the experiment and maintained on a 12 h light/dark cycle.
Brain penetration was determined in discrete manner in rats. One day prior to dosing day, male Wistar rats were acclimatized and randomly grouped according to their weight. At each time point (0.5, 1 and 2 h) n=3 animals were used.
The test compounds were suitably preformulated and administered orally at (free base equivalent) 3 mg/kg. Blood samples were removed via cardiac puncture by using isoflurane anesthesia. The animals were sacrificed to collect brain tissue. Plasma was separated and brain samples were homogenized and stored frozen at −20° C. until analysis. The concentrations of the test compounds in plasma and brain were determined using LC-MS/MS method.
The test compounds were quantified in plasma and brain homogenate by qualified LC-MS/MS method using suitable extraction technique. The test compounds were quantified in the calibration range of 1-500 ng/mL in plasma and brain homogenate. Study samples were analyzed using calibration samples in the batch and quality control samples spread across the batch.

[3] = target: T1, recombinant human Muscarinic M1 receptor (Homo sapiens, UniProt P11229); assay: Allosteric potency EC50 for Muscarinic M1 receptor, CHO pCRE-Luc reporter cell-based assay with EC20 of acetylcholine; conditions: CHO cells, human M1, luciferase reporter, in presence of EC20 of acetylcholine, 4 h
T1 sequence (P11229 1-460): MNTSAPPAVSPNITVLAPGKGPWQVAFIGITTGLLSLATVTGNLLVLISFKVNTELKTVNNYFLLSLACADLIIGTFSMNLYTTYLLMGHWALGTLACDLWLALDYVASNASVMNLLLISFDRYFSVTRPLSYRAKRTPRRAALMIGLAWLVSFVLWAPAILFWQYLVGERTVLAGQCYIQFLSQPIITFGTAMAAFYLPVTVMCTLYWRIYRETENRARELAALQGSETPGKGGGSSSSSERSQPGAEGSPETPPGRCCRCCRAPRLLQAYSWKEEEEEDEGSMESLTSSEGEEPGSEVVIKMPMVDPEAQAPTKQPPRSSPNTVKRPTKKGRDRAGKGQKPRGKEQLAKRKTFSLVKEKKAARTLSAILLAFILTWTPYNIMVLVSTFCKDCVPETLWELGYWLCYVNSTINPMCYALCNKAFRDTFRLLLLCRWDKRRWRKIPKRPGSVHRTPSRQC
Experimental: Determination of allosteric potency EC50 values for Muscarinic M1 receptor:
A stable CHO cell line expressing recombinant human Muscarinic M1 receptor and pCRE-Luc reporter system was used for cell-based assay. The assay offers a non-radioactive based approach to determine binding of a compound to GPCRs. In this specific assay, the level of intracellular cyclic AMP which is modulated by activation or inhibition of the receptor is measured. The recombinant cells harbor luciferase reporter gene under the control of cAMP response element.
The above cells were grown in 96 well clear bottom white plates in Hams F12 medium containing 10% fetal bovine serum (FBS). Prior to the addition of compounds or standard agonist, cells were serum starved overnight. Increasing concentrations of test compounds were added along with EC20 of acetylcholine in OptiMEM medium to the cells. The incubation was continued at 37° C. in CO2 incubator for 4 h. Medium was removed and cells were washed with phosphate buffered saline. The cells were lysed and luciferase activity was measured in a Luminometer. Luminescence counts in each concentrations of test item were normalized to the acetylcholine induced maximum response and the data was analyzed using Graphpad software. EC50 values of the compounds were defined as the concentration required in stimulating the luciferase activity by 50% in presence of EC20 of acetylcholine.

| SMILES | AUC(0-t) ([1]; iv, i.v. 1 mg/kg) [ng·h/mL] | half-life ([1]; iv, i.v. 1 mg/kg) [h] | clearance ([1]; iv, i.v. 1 mg/kg) [mL/min/kg] | bioavailability [1] [%] | AUC(0-t) ([1]; oral 3 mg/kg) [ng·h/mL] | Cmax ([1]; oral 3 mg/kg) [ng/mL] | Tmax ([1]; oral 3 mg/kg) [h] | half-life ([1]; oral 3 mg/kg) [h] | Kp at 1 h [2] | EC50 [3] [nM] |
| --- | --- | --- | --- | --- | --- | --- | --- | --- | --- | --- |
| Cc1c(Cc2ccnc(Cl)c2)cc(C(=O)N[C@H]2CCCC[C@@H]2O)c2ncccc12 [Example 1, N-(cis-1S,2S-2-Hydroxycyclohexyl)-6-(2-chloropyridin-4-ylmethyl)-5-methylquinoline-8-carboxamide] | 492 ± 22 | 1.3 ± 0.5 | 34 ± 1.5 | 24 ± 8 | 360 ± 117 | 150 ± 39 | 0.5 to 1 | 1.1 ± 0.1 | 0.54 ± 0.04 | 719 |
| Cc1c(Cc2cccc(F)c2F)cc(C(=O)N[C@H]2CCCC[C@@H]2O)c2ncccc12 [Example 2, N-(cis-1S,2S-2-Hydroxycyclohexyl)-6-(2,3-difluorobenzyl)-5-methylquinoline-8-carboxamide] | 367 ± 39 | 1.6 ± 0.3 | 45 ± 5 | 14 ± 5 | 158 ± 58 | 48 ± 23 | 0.5 to 2 | 2 ± 0.2 | 1.74 ± 0.03 | 1680 |
| Cc1c(Cc2ccc(Cl)nc2)cc(C(=O)N[C@H]2CCCC[C@@H]2O)c2ncccc12 [Example 6, N-(cis-1S,2S-2-Hydroxycyclohexyl)-6-(2-chloropyridin-5-ylmethyl)-5-methylquinoline-8-carboxamide] | 664 ± 81 | 1.5 ± 0.6 | 25 ± 3.3 | 50 ± 2 | 1000 ± 38 | 582 ± 72 | 0.5 | 1.3 ± 0.2 | 0.26 ± 0.04 | 1670 |
| Cc1c(Cc2ccc(-c3cnn(C)c3)c(F)c2F)cc(C(=O)N[C@H]2CCCC[C@@H]2O)c2ncccc12 [Example 8, N-(cis-1S,2S-2-Hydroxycyclohexyl)-6-[2,3-difluoro-4-(1-methyl-1H-pyrazol-4-yl)-benzyl]-5-methylquinoline-8-carboxamide] | 6150 ± 485 | 3.3 ± 0.7 | 2.7 ± 0.2 | 100 ± 16 | 18400 | 2330 ± 441 | 2 | 3.6 ± 0.2 | – | 168 |
| Cc1c(Cc2ccc(-n3cccn3)cc2)cc(C(=O)N[C@H]2CCCC[C@@H]2O)c2c1NCCO2 [Example 17, N-(cis-1S,2S-2-Hydroxycyclohexyl)-6-(4-pyrazol-1-yl-benzyl)-5-methyl-3,4-dihydro-2H-benzo[1,4]oxazine-8-carboxamide] | 635 ± 70 | 1.3 ± 0.2 | 26 ± 3 | 37 ± 6 | 705 ± 118 | 288 ± 26.5 | 1 | 1.3 ± 0.1 | 0.32 ± 0.06 | 1120 |
| Cc1nc2c(C(=O)N[C@H]3CCCC[C@@H]3O)cc(Cc3ccc(-n4cccn4)cc3)c(C)c2[nH]1 [Example 38, N-(cis-1S,2S-2-Hydroxycyclohexyl)-2,7-dimethyl-6-(4-pyrazol-1-yl-benzyl)-1H-benzimidazole-4-carboxamide] | – | – | – | – | – | – | – | – | – | 694 |
| Cc1nc2c(C(=O)N[C@H]3CCCC[C@@H]3O)cc(Cc3ccc(-c4cnn(C)c4)cc3)c(C)c2[nH]1 [Example 39, N-(cis-1S,2S-2-Hydroxycyclohexyl)-2,7-dimethyl-6-[4-(1-methyl-1H-pyrazol-4-yl)-benzyl]-1H-benzimidazole-4-carboxamide] | – | – | – | – | – | – | – | – | – | 895 |
| Cc1nc2c(C(=O)N[C@H]3CCCC[C@@H]3O)cc(Cc3ccc(-c4cscn4)cc3)c(C)c2[nH]1 [Example 40, N-(cis-1S,2S-2-Hydroxycyclohexyl)-2,7-dimethyl-6-(4-thiazol-4-yl-benzyl)-1H-benzimidazole-4-carboxamide] | – | – | – | – | – | – | – | – | – | 1500 |
| Cc1c(Cc2ccc(-c3cnn(C)c3)cc2F)cc(C(=O)N[C@@H]2CCCC[C@H]2O)c2c1ncn2C [Example 41, N-(cis-1S,2S-2-Hydroxycyclohexyl)-3,7-dimethyl-6-[2-fluoro-4-(1-methyl-1H-pyrazol-4-yl)-benzyl]-3H-benzimidazole-4-carboxamide] | – | – | – | – | – | – | – | – | – | 1060 |
| Cc1c(Cc2ccc(-c3cnn(C)c3)cc2)cc(C(=O)N[C@@H]2CCCC[C@H]2O)c2c1ncn2C [Example 42, N-(cis-1S,2S-2-Hydroxycyclohexyl)-3,7-dimethyl-6-[4-(1-methyl-1H-pyrazol-4-yl)-benzyl]-3H-benzimidazole-4-carboxamide] | – | – | – | – | – | – | – | – | – | 10000 |
| Cc1c(Cc2ccc(-c3cnn(C)c3)c(F)c2F)cc(C(=O)N[C@@H]2CCCC[C@H]2O)c2c1ncn2C [Example 43, N-(cis-1S,2S-2-Hydroxycyclohexyl)-3,7-dimethyl-6-[2,3-difluoro-4-(1-methyl-1H-pyrazol-4-yl)-benzyl]-3H-benzimidazole-4-carboxamide] | – | – | – | – | – | – | – | – | – | 1460 |
| Cc1c(Cc2ccc(-c3cnn(C)c3)nc2)cc(C(=O)N[C@@H]2CCCC[C@H]2O)c2c1ncn2C [Example 44, N-(cis-1S,2S-2-Hydroxycyclohexyl)-3,7-dimethyl-6-[6-(1-methyl-1H-pyrazol-4-yl)-pyridin-3-ylmethyl]-3H-benzimidazole-4-carboxamide] | – | – | – | – | – | – | – | – | – | 208 |
| Cc1c(Cc2ccc(-c3cscn3)cc2)cc(C(=O)N[C@@H]2CCCC[C@H]2O)c2c1ncn2C [Example 45, N-(cis-1S,2S-2-Hydroxycyclohexyl)-3,7-dimethyl-6-[4-(thiazol-4-yl)-benzyl]-3H-benzimidazole-4-carboxamide] | – | – | – | – | – | – | – | – | – | 10000 |
| Cc1cc2c(C)c(Cc3ccc(-c4cnn(C)c4)cc3)cc(C(=O)N[C@H]3CCCC[C@@H]3O)c2o1 [Example 46, N-(cis-1S,2S-2-Hydroxycyclohexyl)-2,4-dimethyl-5-[4-(1-methyl-1H-pyrazol-4-yl)-benzyl]-benzofuran-7-carboxamide] | – | – | – | – | – | – | – | – | – | 299 |
